Here are results for 20 compounds from US9938261B2, “Heterocyclic compounds and methods of use thereof” (AMBIT BIOSCIENCES CORPORATION, priority 2011, dated 2018).

Like-named read-outs stand apart in the source and are kept apart here.

For test [1], the target named is T1, CSF1R (Homo sapiens, UniProt P07333). In words: Competition binding assay, CSF1R Kd. The conditions noted are these: competition binding. The arrangement: made in house. The essentials:
(§1)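 Phage-fused or HEK-293/DNA-tagged kinase + ligand-coated streptavidin beads + compound, 1 h RT with shaking. Wash, elute with free ligand 30 min RT, qPCR of eluted kinase. Kd: 11-point 3-fold series.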

The target of the next test is T2, KIT (Homo sapiens, UniProt P10721).
T2 construct: made in house
T2 sequence (P10721 26-976): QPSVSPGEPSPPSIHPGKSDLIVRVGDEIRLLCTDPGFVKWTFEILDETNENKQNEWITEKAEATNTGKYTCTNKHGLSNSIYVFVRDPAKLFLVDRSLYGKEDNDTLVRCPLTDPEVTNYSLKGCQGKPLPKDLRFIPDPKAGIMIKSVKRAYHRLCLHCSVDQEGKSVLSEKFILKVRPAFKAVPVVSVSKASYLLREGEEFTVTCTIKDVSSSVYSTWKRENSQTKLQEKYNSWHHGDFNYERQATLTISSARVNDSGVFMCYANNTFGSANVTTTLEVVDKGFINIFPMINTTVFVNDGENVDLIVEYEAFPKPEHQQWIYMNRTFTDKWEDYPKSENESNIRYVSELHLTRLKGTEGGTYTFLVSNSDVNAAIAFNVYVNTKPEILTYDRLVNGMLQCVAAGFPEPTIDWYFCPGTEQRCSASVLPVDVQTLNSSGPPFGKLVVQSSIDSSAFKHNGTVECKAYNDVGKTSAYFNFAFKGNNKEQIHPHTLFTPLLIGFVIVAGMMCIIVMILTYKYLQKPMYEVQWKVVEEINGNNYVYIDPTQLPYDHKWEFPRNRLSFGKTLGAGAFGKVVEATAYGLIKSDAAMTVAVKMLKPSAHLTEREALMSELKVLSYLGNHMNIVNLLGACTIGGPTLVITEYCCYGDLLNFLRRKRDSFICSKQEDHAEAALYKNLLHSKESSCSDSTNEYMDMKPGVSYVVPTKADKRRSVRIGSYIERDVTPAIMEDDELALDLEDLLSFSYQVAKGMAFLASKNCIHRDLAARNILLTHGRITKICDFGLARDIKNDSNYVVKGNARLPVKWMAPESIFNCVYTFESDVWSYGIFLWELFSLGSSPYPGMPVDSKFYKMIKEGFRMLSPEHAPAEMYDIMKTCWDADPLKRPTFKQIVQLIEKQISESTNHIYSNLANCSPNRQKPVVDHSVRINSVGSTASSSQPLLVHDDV
The test can be described thus: Competition binding assay, KIT Kd. The conditions noted are these: competition binding. The essentials: as §1

For the next test, the system named is M-NFS-60 cells. The test can be described thus: M-NFS-60 cell proliferation assay (Alamar Blue). The test is classed as cell-based, mouse. The conditions noted are these: M-NFS-60 cell proliferation, read-out: CSF1R M-NFS-60 CTB:IC50. The essentials: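 Alamar Blue reduction (3 h; 560/590 nm) measured viability after 72 h, 37 °C treatment with nine half-log compound concentrations at 0.5% DMSO. Cells: M-CSF-dependent (20 ng/mL) murine M-NFS-60 in RPMI plus 10% FBS. IC50s, averaged from duplicates, reflect half-maximal inhibition of proliferation relative to control.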
(Alamar Blue is a resazurin reagent that responds to reducing activity.)

For test [2], the target named is T1, CSF1R. In words: HEK293 CSF1R phosphorylation MSD assay. The arrangement: expressed in transfected cells; host or cells: HEK293. The test is classed as cell-based. The note with it: HEK293 cells, M-CSF stimulated CSF1R phosphorylation, MSD; read-out: HEK293 pCSF1R M-CSF MSD:IC50. An outline of the steps: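 Ligand-induced CSF1R autophosphorylation was measured by MSD sandwich assay: CSF1R-FKBP from lysates captured via FK506, anti-phosphotyrosine readout. Cells were exposed to compound for 2 h (9-point, half-log, 0.5% DMSO) before 5 min 50 ng/mL M-CSF. Reported IC50 is the mean of duplicate-plate IC50s relative to DMSO control.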

T1 sequence (P07333 20-972): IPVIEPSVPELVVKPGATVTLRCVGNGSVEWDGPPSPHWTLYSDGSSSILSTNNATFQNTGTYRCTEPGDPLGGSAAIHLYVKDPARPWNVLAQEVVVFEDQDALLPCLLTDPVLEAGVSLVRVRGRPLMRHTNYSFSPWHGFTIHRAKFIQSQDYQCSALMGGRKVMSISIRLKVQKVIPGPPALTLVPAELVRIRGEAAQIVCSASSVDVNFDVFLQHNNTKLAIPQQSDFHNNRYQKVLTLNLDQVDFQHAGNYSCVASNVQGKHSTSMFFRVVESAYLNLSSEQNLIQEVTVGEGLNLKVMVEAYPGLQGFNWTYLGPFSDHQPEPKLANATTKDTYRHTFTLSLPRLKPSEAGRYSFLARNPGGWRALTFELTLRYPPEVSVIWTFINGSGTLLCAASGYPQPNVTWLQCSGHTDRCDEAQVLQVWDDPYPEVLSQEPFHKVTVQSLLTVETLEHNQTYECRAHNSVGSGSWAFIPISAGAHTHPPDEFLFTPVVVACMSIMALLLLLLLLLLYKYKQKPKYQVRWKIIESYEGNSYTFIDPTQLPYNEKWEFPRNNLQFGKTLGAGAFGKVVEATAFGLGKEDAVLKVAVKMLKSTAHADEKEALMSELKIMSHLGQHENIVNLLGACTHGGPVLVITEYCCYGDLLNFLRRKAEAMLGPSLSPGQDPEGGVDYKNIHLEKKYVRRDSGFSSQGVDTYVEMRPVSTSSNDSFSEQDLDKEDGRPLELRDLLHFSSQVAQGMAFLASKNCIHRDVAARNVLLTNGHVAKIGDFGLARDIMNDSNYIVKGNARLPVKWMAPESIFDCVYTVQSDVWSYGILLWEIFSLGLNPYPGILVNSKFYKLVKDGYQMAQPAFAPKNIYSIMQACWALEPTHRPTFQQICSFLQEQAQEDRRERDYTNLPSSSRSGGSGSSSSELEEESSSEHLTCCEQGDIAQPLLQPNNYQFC

One may read the Kd as the concentration at which binding is half-saturated. Usually IC50 stands for the concentration needed to halve the response being measured. For the compound `CS(=O)(=O)c1ccc2ncn(Cc3ccc4nc(N[C@@H]5CCCC[C@H]5O)sc4c3)c2c1` [Example 113, (1R,2R)-2-((6-((6-(methylsulfonyl)-1H-benzo[d]imidazol-1-yl)methyl)benzo[d]thiazol-2-yl)amino)cyclohexanol], the Kd on CSF1R [1] is 20 to 50 nM; at KIT, 500 to 2000 nM. The half-inhibitory concentration (IC50) in the test with M-NFS-60 cells (Mus musculus) is above 1500 nM; at CSF1R [2] it was 200 to 500 nM.

For `O[C@@H]1CCCC[C@H]1Nc1nc2ccc(Cn3cnc4cc(-n5ccnc5)ccc43)cc2s1` [Example 226, (1R,2R)-2-((6-((5-(1H-imidazol-1-yl)-1H-benzo[d]imidazol-1-yl)methyl)benzo[d]thiazol-2-yl)amino)cyclohexanol], the figures for the equilibrium dissociation constant (Kd) at CSF1R [1] and on KIT were at most 5 nM and at most 100 nM, respectively. The concentration for half-maximal inhibition (IC50) with M-NFS-60 cells (Mus musculus) and on CSF1R [2] was at most 50 nM each time.

In the case of `N#Cc1ccn2c(Cc3ccc4nc(N[C@@H]5CCCC[C@H]5O)sc4c3)cnc2c1` [Example 117, 3-((2-(((1R,2R)-2-hydroxycyclohexyl)amino)benzo[d]thiazol-6-yl)methyl)imidazo[1,2-a]pyridine-7-carbonitrile], the values for the dissociation constant (Kd) on CSF1R [1] and on KIT were 5 to 20 nM and above 2000 nM, respectively. Besides, the half-maximal inhibitory concentration (IC50) in the test with M-NFS-60 cells (Mus musculus) is 400 to 1500 nM; on CSF1R [2], above 500 nM.

On to `OCc1ccc2ncc(Cc3ccc4nc(N[C@@H]5CCCC[C@H]5O)sc4c3)n2n1` [Example 144, (1R,2R)-2-((6-((6-(hydroxymethyl)imidazo[1,2-b]pyridazin-3-yl)methyl)benzo[d]thiazol-2-yl)amino)cyclohexanol], for which the Kd is at most 5 nM on CSF1R [1] and 100 to 500 nM at KIT. Besides, the figures for the IC50 in the test on M-NFS-60 cells (Mus musculus) and on CSF1R [2] were 50 to 400 nM and 50 to 200 nM, respectively.

On to `C=C(c1ccc2c(c1)ncn2Cc1ccc2nc(N[C@@H]3CCCC[C@H]3O)sc2c1)C(F)(F)F` [Example 175, (1R,2R)-2-((6-((5-(3,3,3-trifluoroprop-1-en-2-yl)-1H-benzo[d]imidazol-1-yl)methyl)benzo[d]thiazol-2-yl)amino)cyclohexanol], for which the equilibrium dissociation constant (Kd) was 5 to 20 nM at CSF1R [1] and 100 to 500 nM on KIT. Moreover, the IC50 in the test on M-NFS-60 cells (Mus musculus) was in the range of 50 to 400 nM; at CSF1R [2] it was 50 to 200 nM.

As for `O[C@H]1CCCC[C@H]1Nc1nc2ccc(Cn3cnc4cc(F)cnc43)cc2s1` [Example 162, (1S,2R)-2-((6-((6-fluoro-3H-imidazo[4,5-b]pyridin-3-yl)methyl)benzo[d]thiazol-2-yl)amino)cyclohexanol], the Kd at CSF1R [1] was at most 5 nM; at KIT, 100 to 500 nM. For the same compound, the half-maximal inhibitory concentration (IC50) in the test on M-NFS-60 cells lay within 50 to 400 nM; at CSF1R [2] it was 50 to 200 nM.

`N#Cc1ccc2c(c1)ncn2Cc1ccc2nc(N[C@@H]3CCCC[C@H]3O)sc2c1` [Example 108, 1-((2-(((1R,2R)-2-hydroxycyclohexyl)amino)benzo[d]thiazol-6-yl)methyl)-1H-benzo[d]imidazole-5-carbonitrile]: the Kd on CSF1R [1] lay within 5 to 20 nM; on KIT it was 500 to 2000 nM. The IC50 is 50 to 400 nM in the test on M-NFS-60 cells (Mus musculus) and 50 to 200 nM at CSF1R [2].

In the case of `O=c1c(N2CCOCC2)nccn1Cc1ccc2nc(N[C@@H]3CCCC[C@H]3O)sc2c1` [Example 222, 1-((2-(((1R,2R)-2-hydroxycyclohexyl)amino)benzo[d]thiazol-6-yl)methyl)-3-morpholinopyrazin-2(1H)-one], the dissociation constant (Kd) was 20 to 50 nM on CSF1R [1] and above 2000 nM on KIT. Further, the IC50 in the test with M-NFS-60 cells (Mus musculus) is above 1500 nM; on CSF1R [2], above 500 nM.

In the case of `O[C@@H]1CCCC[C@H]1Nc1nc2ccc(Cc3cnc4cccnn34)cc2o1` [Example 142, (1R,2R)-2-((6-(imidazo[1,2-b]pyridazin-3-ylmethyl)benzo[d]oxazol-2-yl)amino)cyclohexanol], the dissociation constant (Kd) is at most 5 nM on CSF1R [1] and at most 100 nM on KIT. The half-inhibitory concentration (IC50) was 50 to 400 nM in the test with M-NFS-60 cells (Mus musculus) and at most 50 nM on CSF1R [2].

For `O[C@@H]1[C@H](O)CCC[C@H]1Nc1nc2ccc(Cc3cnc4cc(-n5cccn5)ccn34)cc2s1` [Example 229, (1R,2S,3R)-3-((6-((7-(1H-pyrazol-1-yl)imidazo[1,2-a]pyridin-3-yl)methyl)benzo[d]thiazol-2-yl)amino)cyclohexane-1,2-diol], the Kd is 5 to 20 nM at CSF1R [1] and at most 100 nM at KIT. Further, the results for the IC50 in the test on M-NFS-60 cells (Mus musculus) and on CSF1R [2] were 50 to 400 nM and at most 50 nM, respectively.

Turning to `N#Cc1cnc2c(c1)ncn2Cc1ccc2nc(N[C@@H]3CCCC[C@H]3CO)sc2c1` [Example 140, 3-((2-(((1R,2R)-2-(hydroxymethyl)cyclohexyl)amino)benzo[d]thiazol-6-yl)methyl)-3H-imidazo[4,5-b]pyridine-6-carbonitrile], the figures for the Kd at CSF1R [1] and on KIT were 5 to 20 nM and 500 to 2000 nM, respectively. Further, the IC50 was in the range of 400 to 1500 nM in the test with M-NFS-60 cells (Mus musculus) and 200 to 500 nM at CSF1R [2].

Take `COc1ccc2ncn(Cc3ccc4nc(N[C@@H]5CCCC[C@H]5O)oc4c3)c2c1` [Example 152, (1R,2R)-2-((6-((6-methoxy-1H-benzo[d]imidazol-1-yl)methyl)benzo[d]oxazol-2-yl)amino)cyclohexanol]: the values for the Kd on CSF1R [1] and on KIT were 5 to 20 nM and at most 100 nM, respectively. Also, the values for the 50% inhibitory concentration (IC50) in the test with M-NFS-60 cells (Mus musculus) and at CSF1R [2] were 50 to 400 nM and at most 50 nM, respectively.

On to `COc1ccc2ncc(Cc3ccc4nc(N[C@@H]5CCCC[C@H]5O)sc4c3)n2n1` [Example 150, (1R,2R)-2-((6-((6-methoxyimidazo[1,2-b]pyridazin-3-yl)methyl)benzo[d]thiazol-2-yl)amino)cyclohexanol], for which the equilibrium dissociation constant (Kd) is at most 5 nM on CSF1R [1] and at most 100 nM on KIT. Moreover, the figures for the IC50 in the test with M-NFS-60 cells (Mus musculus) and on CSF1R [2] were 50 to 400 nM and 50 to 200 nM, respectively.

Regarding `Cn1nnc(-c2ccc3c(c2)ncn3Cc2ccc3nc(N[C@@H]4CCC[C@@H](O)[C@H]4O)sc3c2)n1` [Example 236, (1R,2S,3R)-3-((6-((5-(2-methyl-2H-tetrazol-5-yl)-1H-benzo[d]imidazol-1-yl)methyl)benzo[d]thiazol-2-yl)amino)cyclohexane-1,2-diol], the Kd on CSF1R [1] lay within 5 to 20 nM; at KIT, 100 to 500 nM. Also, the IC50 with M-NFS-60 cells (Mus musculus) lay within 50 to 400 nM; on CSF1R [2], 50 to 200 nM.

With `O=C(O)/C=C/c1ccc2c(c1)ncn2Cc1ccc2nc(N[C@@H]3CCCC[C@H]3O)sc2c1` [Example 224, (E)-3-(1-((2-(((1R,2R)-2-hydroxycyclohexyl)amino)benzo[d]thiazol-6-yl)methyl)-1H-benzo[d]imidazol-5-yl)acrylic acid], the dissociation constant (Kd) is 5 to 20 nM on CSF1R [1] and at most 100 nM on KIT. In addition, the values for the IC50 in the test on M-NFS-60 cells (Mus musculus) and at CSF1R [2] were above 1500 nM and above 500 nM, respectively.

In the case of `Cn1nnnc1-c1cnc2c(c1)ncn2Cc1ccc2nc(N[C@@H]3CCCC[C@H]3O)sc2c1` [Example 134, (1R,2R)-2-((6-((6-(1-methyl-1H-tetrazol-5-yl)-3H-imidazo[4,5-b]pyridin-3-yl)methyl)benzo[d]thiazol-2-yl)amino)cyclohexanol], the Kd at CSF1R [1] lay in the range of 5 to 20 nM; at KIT, 100 to 500 nM. For the same compound, the IC50 with M-NFS-60 cells (Mus musculus) was 50 to 400 nM; at CSF1R [2], at most 50 nM.

Regarding `OC[C@@H]1CCCC[C@H]1Nc1nc2ccc(Cn3cnc4cc(Br)cnc43)cc2s1` [Example 133, ((1R,2R)-2-((6-((6-bromo-3H-imidazo[4,5-b]pyridin-3-yl)methyl)benzo[d]thiazol-2-yl)amino)cyclohexyl)methanol], the Kd on CSF1R [1] was 5 to 20 nM; at KIT, 100 to 500 nM. For the same compound, the half-inhibitory concentration (IC50) in the test on M-NFS-60 cells (Mus musculus) is 50 to 400 nM; at CSF1R [2], 50 to 200 nM.

As to `O[C@@H]1[C@H](O)CCC[C@H]1Nc1nc2ccc(Cn3cnc4cc(OC5COC5)ccc43)cc2s1` [Example 233, (1R,2S,3R)-3-((6-((5-(oxetan-3-yloxy)-1H-benzo[d]imidazol-1-yl)methyl)benzo[d]thiazol-2-yl)amino)cyclohexane-1,2-diol], the values for the Kd at CSF1R [1] and at KIT were at most 5 nM and at most 100 nM, respectively. The results for the IC50 in the test on M-NFS-60 cells (Mus musculus) and on CSF1R [2] were 50 to 400 nM and at most 50 nM, respectively.

Turning to `O[C@@H]1CCCC[C@H]1Nc1nc2ccc(Cn3cnc4cc(-n5cccn5)ccc43)cc2s1` [Example 160, (1R,2R)-2-((6-((5-(1H-pyrazol-1-yl)-1H-benzo[d]imidazol-1-yl)methyl)benzo[d]thiazol-2-yl)amino)cyclohexanol], the dissociation constant Kd on CSF1R [1] is at most 5 nM; at KIT it was at most 100 nM. Also, the IC50 in the test on M-NFS-60 cells (Mus musculus) and at CSF1R [2] was at most 50 nM throughout.

On to `O[C@H]1CC[C@H](Nc2nc3ccc(Cn4cnc5cc(F)cnc54)cc3s2)CC1` [Example 163, trans-4-((6-((6-fluoro-3H-imidazo[4,5-b]pyridin-3-yl)methyl)benzo[d]thiazol-2-yl)amino)cyclohexanol], for which the dissociation constant (Kd) is above 50 nM on CSF1R [1] and 100 to 500 nM on KIT. The half-inhibitory concentration (IC50) in the test with M-NFS-60 cells (Mus musculus) was above 1500 nM; on CSF1R [2], above 500 nM.
